# Where a name gives a salt, the structure may show the parent alone.
# Key:
# TAC mice = test: Acute effect on mouse models of heart failure (TAC, single injection 5 weeks later); format: in vivo; conditions: TAC mice 5 weeks after TAC, 50 mg/kg, echocardiography before and 10 minutes after injection
# Method: Transverse aortic constriction (TAC) was performed as described previously [Date, et al. (2002) The antioxidant N-2-mercaptopropionyl glycine attenuates left ventricular hypertrophy in in vivo murine pressure-overload model. J Am Coll Cardiol 39: 907-912.]. Briefly, 8- to 10-week-old mice were anesthetized with anesthetic (0.3 mg/kg of medetomidine, 4.0 mg/kg of midazolam, and 5.0 mg/kg of butorphanol) administered intraperitoneally, and the proximal portion of the sternum was cut open to visualize the aorta. A 7-0 silk suture was placed around the aortic arch distal to the brachiocephalic artery. The suture was tightened firmly around a blunt 26-gauge needle placed adjacent to the aorta. The needle was then removed, and the chest and overlying skin were closed. Sham-operated mice underwent an identical surgical procedure without ligation of the aortic arch. At the end of the operation, 0.3 mg/kg of atipamezole was administered subcutaneously to reverse medetomidine. FIG. 1 is a schematic diagram of TAC.
# To analyze the cardiac function, we used Vevo® 2100 (VISUALSONICS) at the indicated time points after TAC operation. Mice were kept under inhalation anesthesia with 2.5% isoflurane. LV function was measured in M mode of the parasternal short-axis view.
# Mice were subjected to TAC at 8 weeks of age. Five weeks later (at 13 weeks of age), the mice were injected with KUS121 (50 mg/kg), and left ventricular ejection fraction (LVEF), left ventricular end-diastolic diameter (LVDd), and heart rate (HR) were assessed by echocardiography before and 10 minutes after the injection.
# Mice were subjected to TAC at 8 weeks of age. Five weeks later (at 13 weeks of age), the mice were injected with KUS121 (50 mg/kg), and left ventricular pressure was measured by catheterization before and 10 minutes after the injection. The left ventricular pressure was 46.6 mmHg before KUS121 administration, and increased to 128.9 mmHg 10 minutes after the administration. In addition, Max/min dp/dt was changed from 1295.5/−621.4 mmHg/s to 3972.8/−1311.1 mmHg/s. […] Left ventricular ejection fraction was then measured over time and was 37% before KUS121 administration, increased to 67% 5 minutes after the administration, and returned to the baseline about 2 hours after the administration (FIG. 16).
# Mice were subjected to TAC at 8 weeks of age. Five weeks later (at 13 weeks of age), the mice were injected with KUS187 (50 mg/kg), and left ventricular ejection fraction was assessed by echocardiography before and 10 minutes after the injection.
# [1] = system: beagle dog models of heart failure; test: Beagle dog models of rapid ventricular pacing-induced heart failure; format: in vivo; conditions: infusion per FIG. 17 protocol
# Method: After induction of general anesthesia with thiopental sodium (20 mg/kg, i.v.: 0.5 g of Labonal injection, Nipro ES Pharma Corporation) in 10- to 12-month-old male beagle dogs (9.80-11.50 kg), a tracheal cannula was inserted into the airway, and artificial respiration was performed with an Acoma veterinary ventilator (PRO-45Va, Acoma Medical Corporation). Anesthesia was maintained by inhalation of a gas mixture (Air:O2=3:0.2) and 1.0 to 2.5% isoflurane (isoflurane inhalation solution “Pfizer”, Mylan Seiyaku Co., Ltd.) using an Acoma animal anesthesia machine (NS-5000A, Acoma Medical Industry Co., Ltd.) to maintain a constant depth of anesthesia. An incision was made in the right side of the neck of the animal, an animal internal cardiac pacemaker (SIP-501, Star Medical Corporation) was implanted subcutaneously, a retractable screw-in reed (Tendril STS J, St. Jude Medical, Inc.) was inserted through the right jugular vein under X-ray fluoroscopy (BV Pulsera, Koninklijke Philips N.V.), and the tip was implanted in the right ventricular wall. Pacing was started at 244-251 beats/min on postoperative day 1. Dogs with ejection fraction (EF) decreasing to 30-50% at 4 weeks after pacemaker activation were considered to have heart failure and subjected to analysis.
# Echocardiography was performed using a general-purpose ultrasound imaging system (Vivid S6, GE Medical Systems). The left ventricular end-diastolic diameter (LVIDd), left ventricular end-systolic diameter (LVIDs), ejection fraction (EF), and left ventricular internal diameter shortening (% FS) were measured in M-mode by placing a sector probe (10 MHz) on the chest.
# Dogs were anesthetized intravenously with 14.5 to 22.3 mg/kg of secobarbital sodium (Injectable Ionar sodium (0.2), Nichi-Iko Co., Ltd.), followed by subcutaneous administration of 0.2 mg/kg of meloxicam (Metacam 0.5% injection, Boehringer Ingelheim Animal Health Japan Co.). A tracheal tube was inserted into the airway and connected to an Acoma animal ventilator (PRO-45Va, Acoma Medical Industry Co., Ltd.). The ventilator was set at a respiratory rate of 14-18 strokes/min and a tidal volume of 10-20 mL/kg/stroke, and respiration was controlled by an Acoma animal anesthesia machine (NS-5000A, Acoma Medical Industry Co., Ltd.) using a gas mixture (FiO2=0.3-1.0). The exhaled CO2 partial pressure was monitored using an exhaled carbon dioxide monitor (OLG-2800, Nihon Kohden Corporation). The animals were fixed in the dorsal position and the thighs and neck were shom. Anesthesia was maintained by continuous intravenous infusion of sodium secobarbital (5 mg/kg/hr) through the radial cutaneous vein using a Telfusion syringe pump (STC-523, Terumo Corporation). A Swan-Ganz catheter was inserted through the left femoral vein. A catheter for coronary angiography was inserted through the left femoral artery. A 5F sheath for arterial blood sampling was placed in the right femoral artery. A catheter for PV-loop analysis was inserted from the left internal carotid artery. An 8F occlusion balloon was placed from the right femoral vein for occlusion testing. In addition, KUS121 was administered from the left common jugular vein.
# Beagle dog models of heart failure were prepared by rapid ventricular pacing. Cardiac function was assessed by echocardiography before KUS121 administration and after continuous infusion at 40 mg/h. KUS121 increased LVEF, even if it was based on either of the Teichholz method and the modified-Simpson's method, and increased % FS (FIG. 18). Changes in heart rate, systolic blood pressure, diastolic blood pressure, left ventricular ejection fraction, mean pulmonary artery pressure, pulmonary capillary wedge pressure, left ventricular end-diastolic pressure, and adjusted dp/dt are shown in FIGS. 19 to 21. […]
SMILES,left ventricular ejection fraction (LVEF) (TAC mice),heart rate [1],left ventricular systolic function [1]
"CCCCOc1c(C=O)cc(C)cc1-c1ccc(/N=N/c2cc(S(=O)(=O)O)c3ccccc3c2N)cn1 [KUS187, 4-amino-3-[6-(3-formyl-2-butoxy-5-methylphenyl)pyridine-3-ylazo]naphthalene-1-sulfonic acid sodium salt]",increased,–,–
"CC(CCc1ccc(O)cc1)NCCc1ccc(O)c(O)c1 (stereo not drawn) [dobutamine, reference compound]",–,increased heart rate,improved
